“Also recorded” adds a separate entry of the source.
Columns and labels:
TX mice = assay: Tissue and fecal copper levels (ICP-MS, rhodanine staining); assay type: in vivo, mouse
Procedure: C3He-Atp7b^tx-j were obtained from the Jackson laboratory. All animal experiments were performed according to protocols approved by the Institutional Animal Use and Care Committee of Cold Spring Harbor laboratory. Mice were injected intraperitoneally (i.p.) with vehicle, or administered DPM-1001 intraperitoneally or orally at 5 mg/kg once every third day, for over a year. At the end of the study animals were euthanized and tissue samples were removed for biochemical studies.
Tissue samples from wild-type or TX mice treated with saline, DPM-1001 or tetrathiomolybdate was washed three times with PBS containing 1 mM EDTA (to remove nonspecifically bound copper). Then, 215 μl of concentrated nitric acid (BDH Aristar Ultra) was added to each sample and incubated overnight. Samples were boiled at 95° C. for 1 h. and approximately 150 μl of each sample was further diluted in 2 ml 2% nitric acid (made freshly from concentrated nitric acid and Milli-Q water) Samples were analyzed on a Thermo Fisher iCAP Qc ICP mass spectrometer in kinetic energy discrimination (KED) mode against a calibration curve of known copper and phosphorus concentrations, with Ga (20 μg/l, Inorganic Ventures) as an internal standard, Each experiment was carried out twice and each condition was repeated in at least triplicate.
Liver tissues from wild-type and TX mice from untreated and DPM-1001-treated mice were sectioned and stained with H&E or rhodanine. Whole-slide, digitized images of H&E-stained tissue were captured using the Aperio ScanScope XT automated scanning system (Vista, CA). Image J software was used to quantitate rhodanine staining.

MDA-MB-231 cells = assay: MDA-MB-231 orthotopic xenograft; assay type: in vivo, SCID-beige mice; conditions: mice with TNBC xenograft, 5 mg/kg intraperitoneally every day
Procedure: MDA-MB-231 cells (2×10^6) were injected orthotopically into mammary fat pads of SCID-beige mice (Tectonic lab) in 15 μl of a 1:1 mixture with DMEM and growth factor-reduced Matrigel (BD Biosciences). The animals were randomly assigned to three groups to receive saline (control), DPM-1001 (5 mg/kg) or DPM-1003 (5 mg/kg) intraperitoneally everyday once the tumors reached about 200 mm^3. Tumor growth was monitored every third day and volume in mm^3 was measured three times weekly by palpation using the formula: volume=width^2×length/2. Once the tumor volume reached above 500 mm^3 in saline treated mice, the study was terminated. Tumors from all mice were removed for biochemical analysis.

PTP1B-L192A/S372P = PTP1B-L192A/S372P (Homo sapiens, UniProt P18031, L192A/S372P); assay: Phosphatase assay with MSI-1436-resistant mutant; assay type: biochemical; conditions: read-out: IC50 against PTP1B-L192A/S372P
PTP1B-L192A/S372P, sequence (P18031 whole entry L192A/S372P): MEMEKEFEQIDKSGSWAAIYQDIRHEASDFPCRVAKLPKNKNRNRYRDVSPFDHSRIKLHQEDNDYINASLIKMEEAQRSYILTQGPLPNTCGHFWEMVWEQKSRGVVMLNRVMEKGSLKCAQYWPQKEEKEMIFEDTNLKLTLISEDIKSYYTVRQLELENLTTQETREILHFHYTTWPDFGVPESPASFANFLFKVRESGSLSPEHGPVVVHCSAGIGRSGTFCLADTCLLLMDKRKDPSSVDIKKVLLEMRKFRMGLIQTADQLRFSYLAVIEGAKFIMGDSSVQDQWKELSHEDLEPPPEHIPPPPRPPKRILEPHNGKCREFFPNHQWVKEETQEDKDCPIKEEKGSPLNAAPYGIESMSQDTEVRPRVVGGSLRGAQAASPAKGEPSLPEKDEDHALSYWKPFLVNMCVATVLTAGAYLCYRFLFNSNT
From the text: All common reagents were obtained from Thermo Fisher Scientific (Waltham, MA) or Sigma-Aldrich (St. Louis, MO). Difluoro-4-methylumbelliferyl phosphate (DiFMUP) was obtained from Invitrogen (cat #D22065). Solid black 384-well plates (cat #3573) for phosphatase assays were from Corning Incorporated (Corning, NY).

## COC(=O)CCC(C)C1CCC2C3C(O)CC4CC(NCCCCNCc5ccccn5)CCC4(C)C3CCC12C (centres unmarked) [DPM-1001]
TX mice; TX mice
  copper levels in feces: dramatically elevated
  rhodanine staining of liver: no obvious staining for rhodanine
TX mice; TX mice, ICP-MS
  copper levels in liver and brain: inhibits copper accumulation in liver and brain; also recorded: lowered the levels of copper in both tissues; also recorded: as effective as tetrathiomolybdate in removing copper from the liver and brain
TX mice; TX mice, listed as DMP-1001
  copper levels in feces: elevated copper levels in feces
TX mice; wild-type and TX mice, ICP-MS
  copper levels in kidney: does not promote accumulation of copper in the kidney; also recorded: no significant differences
TX mice; wild-type mice
  rhodanine staining of liver: No signal was detected
MDA-MB-231 cells
  tumor volume / tumor size: reduced tumor volume; also recorded: inhibition of tumor size; also recorded: shrank the size of such tumors
PTP1B-L192A/S372P
  IC50: 1000 nM

— patent US12178825B2, “Method and compositions for forming a copper-containing complex and uses thereof” (COLD SPRING HARBOR LABORATORY, priority 2017, dated 2024)
